In ChEMBL document CHEMBL1201862, “PubChem BioAssay data set” (2004):
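Dose response: 5 concentrations. Exposure: 48 h. Format: 96-well plates. Endpoint: linear interpolation; highest concentration if not reached. Here, GI50 denotes the concentration required for 50% inhibition of growth.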 Calls of active or inactive are those of the source. Cut-off read from the data, not from the text of the source: active = GI50 up to about 1.1 µM and inactive = higher.

Assays:
Experiment in all cases: growth of human tumour cells (NCI), 48 h
SF-295 = system: SF-295
SR = system: SR
MDA-MB-435 = system: MDA-MB-435
SNB-19 = system: SNB-19
DU-145 = system: DU-145
OVCAR-8 = system: OVCAR-8
HL-60 = system: HL-60
BT-549 = system: BT-549
NCI/ADR-RES = system: NCI/ADR-RES
SW-620 = system: SW-620
A549 = system: A549
SK-MEL-5 = system: SK-MEL-5
SK-OV-3 = system: SK-OV-3
TK-10 = system: TK-10
T47D = system: T47D
OVCAR-3 = system: OVCAR-3
SF-539 = system: SF-539
SF-268 = system: SF-268
Hs-578T = system: Hs-578T
HT-29 = system: HT-29
SNB-75 = system: SNB-75
EKVX = system: EKVX
RPMI-8226 = system: RPMI-8226
COLO 205 = system: COLO 205
NCI-H23 = system: NCI-H23
UACC-257 = system: UACC-257
MOLT-4 = system: MOLT-4
HCT-15 = system: HCT-15
KM12 = system: KM12
786-0 = system: 786-0
MCF7 = system: MCF7
RXF 393 = system: RXF 393
A498 = system: A498
UACC-62 = system: UACC-62
NCI-H522 = system: NCI-H522
NCI-H460 = system: NCI-H460
SK-MEL-28 = system: SK-MEL-28
OVCAR-5 = system: OVCAR-5
UO-31 = system: UO-31
SK-MEL-2 = system: SK-MEL-2
HCT-116 = system: HCT-116
NCI-H226 = system: NCI-H226
SN12C = system: SN12C
HCC 2998 = system: HCC 2998
ACHN = system: ACHN
Malme-3M = system: Malme-3M
IGROV-1 = system: IGROV-1
CAKI-1 = system: CAKI-1
HOP-62 = system: HOP-62
MDA-MB-231 = system: MDA-MB-231
M14 = system: M14
U-251 = system: U-251
CCRF-CEM = system: CCRF-CEM
K562 = system: K562
PC-3 = system: PC-3
LOX IMVI = system: LOX IMVI
OVCAR-4 = system: OVCAR-4
HOP-92 = system: HOP-92
MDA-N = system: MDA-N

Structure (SMILES): CC(=O)OCc1ccc2oc(=O)c(C(=O)Oc3ccccc3)cc2c1
- GI50 (SF-295): > 100 µM (inactive)
- GI50 (SR): 33.3 µM (inactive)
- GI50 (MDA-MB-435): 61.9 µM (inactive)
- GI50 (SNB-19): > 100 µM (inactive)
- GI50 (DU-145): > 100 µM (inactive)
- GI50 (OVCAR-8): > 100 µM (inactive)
- GI50 (HL-60): 52.1 µM (inactive)
- GI50 (BT-549): > 100 µM (inactive)
- GI50 (NCI/ADR-RES): > 100 µM (inactive)
- GI50 (SW-620): 32.9 µM (inactive)
- GI50 (A549): > 100 µM (inactive)
- GI50 (SK-MEL-5): > 100 µM (inactive)
- GI50 (SK-OV-3): > 100 µM (inactive)
- GI50 (TK-10): 23.8 µM (inactive)
- GI50 (T47D): 17.6 µM (inactive)
- GI50 (OVCAR-3): > 100 µM (inactive)
- GI50 (SF-539): > 100 µM (inactive)
- GI50 (SF-268): 55.7 µM (inactive)
- GI50 (Hs-578T): > 100 µM (inactive)
- GI50 (HT-29): 30.1 µM (inactive)
- GI50 (SNB-75): > 100 µM (inactive)
- GI50 (EKVX): 37.8 µM (inactive)
- GI50 (RPMI-8226): > 100 µM (inactive)
- GI50 (COLO 205): 30.4 µM (inactive)
- GI50 (NCI-H23): 32.6 µM (inactive)
- GI50 (UACC-257): > 100 µM (inactive)
- GI50 (MOLT-4): > 100 µM (inactive)
- GI50 (HCT-15): 19.5 µM
- GI50 (KM12): > 100 µM (inactive)
- GI50 (786-0): 20.3 µM (inactive)
- GI50 (MCF7): 30.3 µM (inactive)
- GI50 (RXF 393): 44.6 µM (inactive)
- GI50 (A498): > 100 µM (inactive)
- GI50 (UACC-62): 17.7 µM (inactive)
- GI50 (NCI-H522): > 100 µM (inactive)
- GI50 (NCI-H460): 67.1 µM (inactive)
- GI50 (SK-MEL-28): 86.9 µM (inactive)
- GI50 (OVCAR-5): > 100 µM (inactive)
- GI50 (UO-31): 35.2 µM (inactive)
- GI50 (SK-MEL-2): > 100 µM (inactive)
- GI50 (HCT-116): 15.6 µM (inactive)
- GI50 (NCI-H226): > 100 µM (inactive)
- GI50 (SN12C): 30.1 µM (inactive)
- GI50 (HCC 2998): > 100 µM (inactive)
- GI50 (ACHN): 91.6 µM (inactive)
- GI50 (Malme-3M): > 100 µM (inactive)
- GI50 (IGROV-1): > 100 µM (inactive)
- GI50 (CAKI-1): 20 µM (inactive)
- GI50 (HOP-62): > 100 µM (inactive)
- GI50 (MDA-MB-231): 27.8 µM (inactive)
- GI50 (M14): > 100 µM (inactive)
- GI50 (U-251): > 100 µM (inactive)
- GI50 (CCRF-CEM): > 100 µM (inactive)
- GI50 (K562): 3.72 µM (inactive)
- GI50 (PC-3): 16.2 µM (inactive)
- GI50 (LOX IMVI): > 100 µM (inactive)
- GI50 (OVCAR-4): > 100 µM (inactive)
- GI50 (HOP-92): 20.3 µM (inactive)
- GI50 (MDA-N): > 100 µM (inactive)
